Patent US10987059B2, “Electronic scaffold and uses thereof” (Ramot at Tel-Aviv University Ltd., priority 2013, dated 2021)

Tests used:
[1] = Release profile of SSA from polypyrrole hydrogel scaffold upon voltage application; type: physicochemical; conditions: absorbance at 280 nm
Experimental: Pyrrole was […] in a 10-mL one-compartment cell, using an electrochemical workstation under computer control. The gold-based microelectrodes, prepared as described in Example 1 hereinabove, were used as working electrodes. The counter electrode was platinum wire and the reference electrode was a saturated calomel electrode (SCE). The electrolyte was an aqueous solution (100 ml) containing 0.2 M pyrrole (1.39 ml) and 0.2 M sulfosalicylic acid (5.08 grams), which was degassed by nitrogen stream before polymerization was effected. The SSA-doped PPy films (PPy-SSA) were prepared on the gold microelectrodes by galvanostatic polymerization using a current density of 2.5 mA/cm^2 for 800 seconds. The as-prepared PPy-SSA films were rinsed with de-ionized water and dried in air at room temperature. A second layer was thereafter deposited by using an aqueous solution (100 ml) of 0.2 M pyrrole and 0.1 M NaCl (0.5844 grams), subjected to a galvanostatic polymerization with a current density of 2 mA/cm^2 for 500 seconds.

[2] = tested on: neonatal rat ventricular cardiomyocytes; assay: Action potentials recorded from the engineered (cyborg) tissue before and after adding a stimulating drug; type: cell-based; conditions: 100 nM in growth medium, 15 minutes incubation; single electrode; device with albumin fibrous scaffold; before vs after drug
Experimental: After the device was incubated for a time period that allows tissue generation, the obtained cyborg tissue was connected to the pre-amplifier and monitored through the computer, using a system as exemplified in FIG. 8. This allows monitoring the progress of tissue formation as well as studying the influence of different conditions and substances on the tissue, an approach that could replace animal drug testing and make it easier and simpler.
At the time of the recording, the device was connected to a ME64-FAI-MPA-System by multichannel systems (Germany). Action potentials were recorded using the MC rack software which allows recording over multiple electrodes simultaneously.
After action potentials were recorded, 100 nM of noradrenaline was added to the growth medium and the device was allowed to incubate for 15 minutes after which the device was reconnected and action potentials were again recorded.

[3] = poly(2-acrylamido-2-methylpropane sulfonic acid-co-n-butylmethacrylate) scaffold; PBS medium; optical density at 462
Experimental: The release profile of dopamine from device polymeric element made of a positive electro-responsive polymer as described herein was measured as follows:
Disc shaped preloaded slices of formed hydrogel (2-3 mm) were placed between two Graphite electrodes (1 cm apart) in a plastic culture plate. The electrodes were connected to a stimulus generator (STG-4002 multichannel systems, Germany), and the plate was filled with a medium of PBS (0.35 ml). A DC pulse of different intensities (0-8 volt) and different durations (0-15 minutes) was supplied.
Nano-Drop spectrophotometer (ND-1000 spectrophotometer, Thermo scientific, Wilmington Del. U.S.A) at a wave length of 462 was used to examine the light absorbance of the medium. The relation between the light absorbance and the concentration is given by Beer-Lambert as a linear equation: A=εlc
wherein A is the light absorbance, l is the length of the light through the sample [m], C is the concentration in [M], and ε is the molar absorptivity [m^−1M^−1].

With `O=C(O)c1cc(S(=O)(=O)O)ccc1O` [SSA, Sulfosalicylic acid] as the compound, how does the “drug release, voltage on vs off” value [1] read?
The value was “When voltage is applied the drug is released into the polymer's vicinity and when voltage application is discontinued drug release ceases”.

For `NC[C@H](O)c1ccc(O)c(O)c1` [Noradrenalin], which “frequency of the action potentials” value [2] is on record?
Its value is “increased”.

Which “drug release rate, voltage on vs off” value [3] does the source give for `NCCc1ccc(O)c(O)c1` [dopamine] here?
The value was “much higher drug release rate when voltage is applied (on) than when it is not applied (off)”.
